Patent publication US10017741B2, “Compositions and methods for obtaining enriched mesenchymal stem cell cultures” (StemCell Technologies Inc., priority 2013, dated 2018)
Entries after “also recorded” stand apart in the source; their conditions may differ.

Assays:
[1] = system: mouse BM-derived cells (MSC colonies); experiment: Mouse BM-derived CFU-F assay; format: cell-based; details: 14 days
Experimental: a. Mouse BM and CB-Derived CFU-F Assay • 1. […] Medium was removed cultures washed with 2 mL PBS. • 4. Cells were fixed by adding 2 mL methanol/well and incubated at room temperature for 5 minutes. • 5. Methanol was removed and plates allowed to air dry for 5 minutes. • 6. To each well, 2 mL Toluidine blue solution was added and incubated for 30 minutes at room temperature. • 7. Toluidine blue solution was removed and wells rinsed with water. • 8. Water was removed and plates allowed to dry. • 9. Colony formation was assessed by enumeration and colony size. Mouse BM-derived cells were isolated as described previously and CFU-F assays setup as described above. […] Cultures were then stained with Toluidine blue and colony formation and appearance assessed. Three independent assays CFU-F assays for both BM- and CB-MSC were setup as in Example 4a and 4b. […] These assays were maintained for 14 days without media change. At the end of day 14, cultures were fixed and stained with toluidine blue and the number of MSC colonies counted.

[2] = system: CB-derived cultures (macrophage contamination, MSC morphology); experiment: Images of CB-derived expansion cultures; format: cell-based, mouse; details: for macrophage contamination and MSC enrichment (images): CB
Experimental: c. Expansion of Human BM and Mouse BM and CB-Derived Cells Assay • 1. […] Cultures were allowed to grow for 10-14 days until adherent cells achieved 70 to 80% confluence. Mouse cultures were maintained under normal (5% CO2) or hypoxic conditions (5% CO2/5% O2) at 37 C in a cell culture incubator. Human cultures were maintained under 5% CO2 at 37 C in a humidified cell culture incubator. • 3. Adherent cells were passaged by releasing cultures from flask. Cultures were washed with 5 mL PBS and then 5 mL of 0.25% trypsin solution ([…] catalogue #07901) was added and the flasks incubated for 10 min at 37 C. To each flask, 5 mL complete medium was added to stop trypsin activity. • 4. Released cells were collected into a tube and centrifuged at 300×g for 5 minutes. • 5. Cells were resuspended in 2 mL of medium and counted using a hemocytometer. • 6. […] P1 cultures were incubated until they reached 70 to 80% confluence. • 8. Passaged cultures can be used at any time from P0 to P10 as needed for different applications.

[3] = system: mouse CB-MSC cultures; experiment: Osteogenic and adipogenic differentiation of mouse CB-MSC; format: cell-based
[4] = system: BM-MSCs (CD45−/CD29+/Sca1+); experiment: Total cell count with flow cytometry, BM-MSC cultures; format: cell-based, mouse
Experimental: (§1) d. Flow Cytometry Analysis • 1. Cultures of BM and CB-derived cells were trypsinized for 10 minutes and an equal volume of complete medium was added to cultures to stop trypsin activity • 2. Cell suspension was filtered through a 40 μm strainer, and cells counted using a hemocytometer • 3. Suspension was spun down at 300×g for 5 minutes. • 4. Supernatant was removed and cell pellet resuspended in FACS buffer (PBS with 2% FBS and 1 mM EDTA) • 5. A total of 1×10^5 cells in 300 μL FACS buffer was used for each flow cytometry analysis tube, including unstained, viability, compensation, and isotype controls. • 6. Cell suspensions were stained with fluorophore-labeled antibodies against CD45, CD11b, and Sca1, CD29, and viability dye. • 7. Cell suspensions were analyzed on a flow cytometer using compensation and isotype control to determine laser voltage and gating. • 8. Samples were gated on viable CD45^+ cells and 10,000 events per sample were collected. Alternatively, cells were gated on viable CD45^− cells and out of this gate the proportion of CD29+/Sca1^+ cells obtained.
(§2) Prior to flow cytometry, control and GW2580-treated cultures of BM- and CB-MSC were dissociated from tissue culture flasks by trypsinization and the total number of cells counted with the aid of a hemocytometer. Flow cytometry analysis was performed and the ratio of CD45^− cells and CD45^−/CD29^+/Sca1^+ cells applied to the total number of cells to obtain the actual number of these cells in culture (Table 2).

[5] = system: CB-MSCs (CD45−/CD29+/Sca1+); experiment: Total cell count with flow cytometry, CB-MSC cultures; format: cell-based, mouse
Experimental: as §1, §2

[6] = system: 26 other kinases; details: cited from earlier work
[7] = system: CSF-1-independent cell line, human fibroblasts, and other endothelial cells; details: cited from earlier work
[8] = BM-MSC, assay 1, 1 uM GW2580, 1.0 × 10^6 cells plated
[9] = BM-MSC, assay 1, 1 uM GW2580, 2.5 × 10^5 cells plated
[10] = BM-MSC, assay 1, 1 uM GW2580, 5.0 × 10^5 cells plated
[11] = BM-MSC, assay 1, 1 uM GW2580, Sum of the three densities
[12] = BM-MSC, assay 2, 2.5 uM GW2580, 1.0 × 10^6 cells plated
[13] = BM-MSC, assay 2, 2.5 uM GW2580, 2.5 × 10^5 cells plated
[14] = BM-MSC, assay 2, 2.5 uM GW2580, 5.0 × 10^5 cells plated
[15] = BM-MSC, assay 2, 2.5 uM GW2580, Sum of the three densities
[16] = BM-MSC, assay 3, 2.5 uM GW2580, 1.0 × 10^6 cells plated
[17] = BM-MSC, assay 3, 2.5 uM GW2580, 2.5 × 10^5 cells plated
[18] = BM-MSC, assay 3, 2.5 uM GW2580, 5.0 × 10^5 cells plated
[19] = BM-MSC, assay 3, 2.5 uM GW2580, Sum of the three densities
[20] = BM-MSCs, 2.5 uM GW2580, 14 days during P0
[21] = CB-MSCs, 2.5 uM GW2580, 14 days during P0

Q: With `COc1ccc(COc2ccc(Cc3cnc(N)nc3N)cc2OC)cc1` [GW2580, 5-(3-Methoxy-4-((4-methoxybenzyl)oxy)benzyl)pyrimidine-2,4-diamine] as the compound, how does the “overall minimal increase in number of MSC colonies vs control” value ([1]; BM-MSC, 1 or 2.5 uM, three assays) read?
A: Its value is no less than 20%.

Q: And the “% increase in number of MSC colonies vs control” value (“% increase in number” for short) [1, 8]?
A: Its value is 26%.

Q: And the “Number of MSC colonies” value [1, 8]?
A: Its value is 227.

Q: And the “% increase in number” value [1, 9]?
A: Its value is 26%.

Q: What about the “Number of MSC colonies” value [1, 9] of the same compound?
A: Its value is 103.

Q: And the “% increase in number” value [1, 10]?
A: The value was 44%.

Q: What about the “Number of MSC colonies” value [1, 10] of the same compound?
A: The value was 201.

Q: And the “% increase in number” value [1, 11]?
A: The value was 32%.

Q: What about the “Number of MSC colonies” value [1, 11] of the same compound?
A: Its value is 531.

Q: What about the “% increase in number” value [1, 12] of the same compound?
A: The value was 21%.

Q: And the “Number of MSC colonies” value [1, 12]?
A: Its value is 34.

Q: And the “% increase in number” value [1, 13]?
A: The value was 0%.

Q: What about the “Number of MSC colonies” value [1, 13] of the same compound?
A: Its value is 3.

Q: What about the “% increase in number” value [1, 14] of the same compound?
A: The value was 109%.

Q: What about the “Number of MSC colonies” value [1, 14] of the same compound?
A: Its value is 23.

Q: What about the “% increase in number” value [1, 15] of the same compound?
A: Its value is 40%.

Q: And the “Number of MSC colonies” value [1, 15]?
A: The value was 60.

Q: What about the “% increase in number” value [1, 16] of the same compound?
A: The value was 50%.

Q: What about the “Number of MSC colonies” value [1, 16] of the same compound?
A: Its value is 60.

Q: What about the “% increase in number” value [1, 17] of the same compound?
A: The value was 67%.

Q: And the “Number of MSC colonies” value [1, 17]?
A: Its value is 5.

Q: And the “% increase in number” value [1, 18]?
A: Its value is 70%.

Q: And the “Number of MSC colonies” value [1, 18]?
A: Its value is 17.

Q: And the “% increase in number” value [1, 19]?
A: The value was 55%.

Q: And the “Number of MSC colonies” value [1, 19]?
A: The value was 82.

Q: What about the “increase in colony number compared to control cultures” value ([1]; BM-derived, 1 μM) of the same compound?
A: Its value is “at least 20%”.

Q: What about the “MSC CFU-F appearance (colony size, macrophages)” value ([1]; BM-derived, 1 μM, Toluidine blue) of the same compound?
A: Its value is “bigger in size and have a much reduced number of macrophages; also recorded: larger, enriched MSC CFU-F that are mostly free of macrophages”.

Q: What about the “macrophage contamination and MSC enrichment (images)” value ([2]; 1 μM continuous P0-P3) of the same compound?
A: The value was “have reduced numbers of macrophages; also recorded: contain a much reduced number of these contaminating macrophages”.

Q: What about the “macrophage contamination and MSC enrichment (images)” value ([2]; 1 μM, P2) of the same compound?
A: Its value is “a much reduced number of macrophages is observed; also recorded: enriched and mostly devoid of macrophage contamination”.

Q: And the “macrophage contamination and MSC appearance (images)” value ([2]; CB, 1, 5 and 10 μM)?
A: Its value is “have reduced numbers of contaminating macrophages; also recorded: a noticeable decrease in macrophages was noticed”.

Q: What about the “adipogenic and osteogenic differentiation (Oil Red O, ALP/mineralization)” value ([3]; CB-MSC, 2.5 uM for 2 passages, plated at 4.0×10^4 cells/cm^2, 14 days) of the same compound?
A: The value was “substantial adipogenic and osteogenic differentiation”.

Q: And the “differentiation into osteogenic and adipogenic lineages vs control cultures” value ([3]; mouse CB-MSC exposed to GW2580 during expansion)?
A: The value was “stronger and more robust differentiation”.

Q: And the “actual increase in BM-MSCs (CD45−/CD29+/Sca1+) vs control” value ([4]; BM-MSC, 2.5 uM GW2580)?
A: The value was 0.25 fold.

Q: What about the “increase in number of CD45−/CD29+/Sca1+ MSCs vs control” value ([4]; BM-MSC, 2.5 uM GW2580) of the same compound?
A: The value was 26%.

Q: What about the “Actual number of cells, CD45−” value [4, 20] of the same compound?
A: The value was 665,331.

Q: What about the “Actual number of cells, CD45−/CD29+/Scal+” value [4, 20] of the same compound?
A: The value was 639,450.

Q: What about the “CD45−, Percent (Flow Cytometry)” value [4, 20] of the same compound?
A: Its value is 70.48%.

Q: What about the total cells [4, 20] of the same compound?
A: The total cells was 9.44E+05.

Q: What about the “CD45−/CD29+/Scal+, Percent (Flow Cytometry)” value ([4]; BM-MSCs, 2.5 uM GW2580, 14 days during P0, out of CD45− gate) of the same compound?
A: The value was 96.11%.

Q: What about the “increase in number of CD45−/CD29+/Sca1+ MSCs vs control” value ([5]; CB-MSC, 2.5 uM GW2580) of the same compound?
A: The value was 310%.

Q: What about the “Actual number of cells, CD45−” value [5, 21] of the same compound?
A: Its value is 530,702.

Q: And the “Actual number of cells, CD45−/CD29+/Scal+” value [5, 21]?
A: Its value is 507,616.

Q: And the “CD45−, Percent (Flow Cytometry)” value [5, 21]?
A: The value was 95.45%.

Q: What about the total cells [5, 21] of the same compound?
A: Its total cells is 5.56E+05.

Q: And the “CD45−/CD29+/Scal+, Percent (Flow Cytometry)” value ([5]; CB-MSCs, 2.5 uM GW2580, 14 days during P0, out of CD45− gate)?
A: Its value is 95.65%.

Q: And the “activity against 26 other kinases tested” value [6]?
A: The value was “inactive”.

Q: What about the “sensitivity of CSF-1-independent cell line, human fibroblasts and other endothelial cells to GW2580” value [7] of the same compound?
A: The value was “highly resistant”.
